Measurements from ChEMBL document CHEMBL5543158, “Design of Evodiamine-Glucose Conjugates with Improved In Vivo Antitumor Activity” (J Med Chem, 2024).
Values after ≈ are worked out from the molar mass of the structure shown.

Columns and labels:
[1] = Solubility of the compound in double distilled water measured upto 30 mins by UV-vis spectrophotometry; assay type: physicochemical
HCT-116 [2] = assay: Antiproliferative activity against human HCT116 cells in presence of 5 uM phloretin measured after 72 hrs by CCK-8 assay; assay type: functional, cell-based; details: HCT-116, 72 h
HCT-116 [3] = assay: Antiproliferative activity against human HCT116 cells in presence of 10 uM phloretin measured after 72 hrs by CCK-8 assay; assay type: functional, cell-based; details: HCT-116, 72 h
[4] = Cytotoxicity against HUVEC after 72 hrs by CCK-8 assay; assay type: toxicity, cell-based; details: human, HUVEC cells
HCT-116 [5] = assay: In vivo antitumor effect in human HCT-116 cells xenografted mouse model assessed as tumor growth inhibition at 5 mg/kg, ip twice a day administered 21 consecutive days; assay type: functional; details: read-out: TGI
[6] = Toxicity in mouse xenografted with human HCT-116 cells assessed as organ damage by measuring change in heart at 5 mg/kg, ip twice a day administered 21 consecutive days; assay type: organism-based; details: in vivo
[7] = Toxicity in mouse xenografted with human HCT-116 cells assessed as liver damage by measuring enlarged sizes of vacuole at 5 mg/kg, ip twice a day administered 21 consecutive days; assay type: organism-based; details: in vivo
[8] = Toxicity in mouse xenografted with human HCT-116 cells assessed as organ damage by measuring change in spleen at 5 mg/kg, ip twice a day administered 21 consecutive days; assay type: organism-based; details: in vivo
[9] = Toxicity in mouse xenografted with human HCT-116 cells assessed as organ damage by measuring thickened alveolar wall in lungs at 5 mg/kg, ip twice a day administered 21 consecutive days; assay type: organism-based; details: in vivo
[10] = Toxicity in mouse xenografted with human HCT-116 cells assessed as kidney damage by measuring atrophy of glomeruli at 5 mg/kg, ip twice a day administered 21 consecutive days; assay type: organism-based; details: in vivo

| SMILES | solubility at 0.5 h [1] | IC50 (HCT-116 [2]) | IC50 (HCT-116 [3]) | IC50 at 72 h [4] | inhibition in vivo at 5 mg/kg (HCT-116 [5]) | Activity [6] | Activity [7] | Activity [8] | Activity [9] | Activity [10] |
| --- | --- | --- | --- | --- | --- | --- | --- | --- | --- | --- |
| CN1c2ccc(F)cc2C(=O)N2CCc3c([nH]c4ccc(OCc5cn(CCCO[C@@H]6O[C@H](CO)[C@@H](O)[C@H](O)[C@H]6O)nn5)cc34)[C@H]21 | 2020 µg/mL (≈ 3160 µM) | – | – | – | – | – | – | – | – | – |
| CN1c2ccc(F)cc2C(=O)N2CCc3c([nH]c4ccc(O)cc34)[C@H]21 | 145 µg/mL (≈ 430 µM) | 54 nM | 545 nM | 16 nM | 51% | Toxic | Toxic | Toxic | Toxic | Toxic |
